The record followed here is PubChem BioAssay (NCI).

Experiment in all cases: NCI tumour cell line growth inhibition, 48 h
Experiment [1] relates to DLD-1 colon.
Experiment [2] relates to DMS 114 small cell lung.
For experiment [3], the system named is HOP-18 NSCLC.
The test system of experiment [4] is KM20L2 colon.
Experiment [5] has as its system P388 leukemia.
For experiment [6], the system named is SN12K1 renal.
In experiment [7] the test system is SNB-78 CNS.
In experiment [8] the test system is XF 498 CNS.
Experiment [9] relates to LXFL 529 NSCLC.

Each structure is given as a SMILES string.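 Where inhibition never reached the appropriate level, the endpoint shown equals the highest concentration tested. Otherwise, values were interpolated linearly from a five-concentration, 48-hour dose response in 96-well plates. TGI is the concentration that stops growth completely.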

Turning to `CC(=O)Nc1ccc(/C=C/c2ccc(NC(=O)Nc3ccc(/C=C/c4ccc(NC(C)=O)cc4S(=O)(=O)O)c(S(=O)(=O)O)c3)cc2S(=O)(=O)O)c(S(=O)(=O)O)c1`, the TGI in experiment [1], in experiment [2], in [3], in experiment [4], in experiment [5] and in experiment [6] was > 100 µM in each case. The TGI in experiment [7] and in experiment [8] was > 100 µM throughout.
On to `Clc1ccc(C[P+](c2ccccc2)(c2ccccc2)c2ccccc2)c(Cl)c1`, for which the TGI in experiment [2] amounted to 6 µM; in experiment [4], 18.9 µM; in experiment [9], 12.5 µM; in experiment [7], 11 µM; in experiment [8], 4.4 µM.
